Key:
[1] = Thioether stapling in folded myoglobin: Cys thiol SN2 on the chloroacetamide of genetically encoded p-chloroacetamido-Phe (pCaaF), loss of HCl; spontaneous during E. coli expression (27 °C overnight) and purification, then overnight incubation at pH ~8.5; conditions: the molecule shown is the open-chain precursor, aqueous (E. coli cytosol, then KPi buffer adjusted to pH ~8.5), other, scale: % stapled
[2] = Thioether stapling in folded myoglobin: Cys thiol SN2 on the bromoethyl ether of genetically encoded O-2-bromoethyl tyrosine (O2beY), loss of HBr; conditions: the molecule shown is the open-chain precursor, aqueous (E. coli expression), other, scale: 1 = efficient/successful stapling, 0.5 = partial, 0 = failed, cited from earlier work

sperm whale Mb(H64V,V68A) + L9R, H12C, D122T, A127pCaaF
ring closure, conversion by HPLC ([1]; 356-membered ring): 100

sperm whale Mb(H64V,V68A) + D20S, G23C, D27A, R118pCaaF
ring closure, conversion by HPLC ([1]; 296-membered ring): 100

sperm whale Mb(H64V,V68A) + G5O2beY, D126C
ring closure, product found ([2]; 374-membered ring): 1

sperm whale Mb(H64V,V68A) + K16C, H119A, G121O2beY, D122S
ring closure, product found ([2]; 326-membered ring): 0

sperm whale Mb(H64V,V68A) + R31pCaaF, S35K, E109C
ring closure, conversion by HPLC ([1]; 245-membered ring): 100

sperm whale Mb(H64V,V68A) + K16C, H119A, G121pCaaF, D122S
ring closure, conversion by HPLC ([1]; 326-membered ring): 60

sperm whale Mb(H64V,V68A) + L9R, H12C, D122T, A127O2beY
ring closure, product found ([2]; 356-membered ring): 1

sperm whale Mb(H64V,V68A) + G5pCaaF, D126C
ring closure, conversion by HPLC ([1]; 374-membered ring): 100

sperm whale Mb(H64V,V68A) + G5pCaaF, H36pCaaF, E109C, H113E, D126C
ring closure, conversion by HPLC [1]: 100

sperm whale Mb(H64V,V68A) + R31O2beY, S35K, E109C
ring closure, product found ([2]; 245-membered ring): 0

sperm whale Mb(H64V,V68A) + G5pCaaF, H36pCaaF, E109C, D126C
ring closure, conversion by HPLC [1]: 100

sperm whale Mb(H64V,V68A) + H36O2beY, E109C
ring closure, product found ([2]; 230-membered ring): 1

sperm whale Mb(H64V,V68A) + D27pCaaF, H113C, V114G
ring closure, conversion by HPLC ([1]; 269-membered ring): 100

sperm whale Mb(H64V,V68A) + H36pCaaF, E109C
ring closure, conversion by HPLC ([1]; 230-membered ring): 78
